target: T1, sPHEX (Homo sapiens, UniProt P78562); test: sPHEX inhibitor IC50 determination using a fluorogenic substrate (Abz-GFSDYK-Dnp, S3); format: biochemical; conditions: fluorogenic substrate 20 μM, 100 ng sPHEX, pH 6.5
T1 construct: The soluble form of the metallopeptidase PHEX (sPHEX) was purified to homogeneity; made in house
T1 sequence (P78562 53-749 limits assumed): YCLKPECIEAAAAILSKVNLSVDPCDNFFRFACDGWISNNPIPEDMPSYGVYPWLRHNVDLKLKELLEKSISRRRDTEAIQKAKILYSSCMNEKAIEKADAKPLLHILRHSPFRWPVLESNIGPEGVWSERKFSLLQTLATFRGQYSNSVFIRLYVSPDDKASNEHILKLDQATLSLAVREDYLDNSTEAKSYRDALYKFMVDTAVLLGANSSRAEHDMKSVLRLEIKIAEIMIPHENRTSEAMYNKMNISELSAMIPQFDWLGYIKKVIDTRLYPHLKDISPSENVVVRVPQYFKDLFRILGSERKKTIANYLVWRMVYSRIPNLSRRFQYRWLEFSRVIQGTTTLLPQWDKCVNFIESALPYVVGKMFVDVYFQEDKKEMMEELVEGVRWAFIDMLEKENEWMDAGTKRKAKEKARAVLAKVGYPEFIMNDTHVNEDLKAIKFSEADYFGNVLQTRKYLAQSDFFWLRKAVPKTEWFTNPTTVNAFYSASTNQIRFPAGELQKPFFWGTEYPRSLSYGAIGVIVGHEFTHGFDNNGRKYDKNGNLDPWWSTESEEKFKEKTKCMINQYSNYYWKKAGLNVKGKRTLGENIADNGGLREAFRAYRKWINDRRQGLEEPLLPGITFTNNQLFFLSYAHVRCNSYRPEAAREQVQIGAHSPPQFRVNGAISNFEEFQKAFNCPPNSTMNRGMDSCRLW
Experimental: The soluble form of the metallopeptidase PHEX (sPHEX) was purified to homogeneity according to the methods of Boileau and Crine (WO 00/50580). sPHEX quantity was measured with the Bradford assay (BioRad) using BSA as a standard.
sPHEX activity was determined using a fluorogenic substrate in which an increase of fluorescence was proportional to substrate conversion to products.
S3 was synthesized at Dr. Gilles Lajoie's laboratories (University of Western Ontario, Canada) by standard solid phase peptide synthesis. The fluorescent reaction product was excited at 320 nm to fluoresce at 420 nm. Fluorescence was recorded at 420 nm every five minutes over a one-hour period on a fluorescence plate reader (Perkin-Elmer, HTS-7000) to calculate the initial rate of the reaction. Typically, the reaction was carried out in 200 μl of buffer M (50 mM Mes(NaOH) pH 6.5, 150 mM NaCl) containing 100 ng of purified sPHEX and 20 μM of fluorigenic substrate to initiate the reaction. Enzymatic activity was determined by subtracting either the initial rate of substrate in buffer (solvolysis), or the typical reaction rate in which 5 mM EDTA was added prior to initiating the reaction.
sPHEX inhibitor IC50 determinations were done using the tested inhibitor at various concentrations coming from a serial dilution (usually ranging from 10^−3 M to 10^−12 M) in the reaction described above. IC50 values were calculated using the iterative four parameters non-linear regression formula from the GraphPad™ software (Prism).

SMILES	IC50 [nM]
O=C(O)CC(CC(=O)NO)C(=O)NCCCCc1ccccc1 (stereo not drawn) [Example 134, 4-Hydroxycarbamoyl-3-(4-phenyl-butylcarbamoyl)-butyric acid]	560
O=C(O)CC(CC(=O)NO)C(=O)NCCOc1ccccc1 (stereo not drawn) [Example 138, 4-Hydroxycarbamoyl-3-(2-phenoxy-ethylcarbamoyl)-butyric acid]	860
O=C(O)CC(CC(=O)NO)C(=O)NCCc1ccc(-c2ccc(O)cc2)cc1 (stereo not drawn) [Example 140, 3-[2-(4′-Hydroxy-biphenyl-4-yl)-ethylcarbamoyl]4-hydroxycarbamoyl-butyric acid]	360
O=C(O)CC(CC(=O)NO)C(=O)NCCCCCO (stereo not drawn) [Example 148, 4-Hydroxycarbamoyl-3-(5-hydroxy-pentylcarbamoyl)-butyric acid]	1700
O=C(O)CC(CC(=O)NO)C(=O)NCc1ccc(-c2ccccc2)cc1 (stereo not drawn) [Example 150, 3-[(Biphenyl-4-ylmethyl)-carbamoyl]-4-hydroxycarbamoyl-butyric acid]	270
O=C(O)CC(CCC(=O)NO)C(=O)NCCc1ccc(-c2ccccc2)cc1 (stereo not drawn) [Example 152, 3-(2-Biphenyl-4-yl-ethylcarbamoyl)-5-hydroxycarbamoyl-pentanoic acid]	1300
O=C(O)C[C@H](NC(CCc1ccccc1)P(=O)(O)O)C(=O)N[C@@H](Cc1c[nH]c2ccccc12)C(=O)O (stereo partly drawn) [Example 162, N-[1-carboxy-2-(1H-indol-3-yl)-ethyl]-3-(3-phenyl-1-phosphono-propylamino)-succinic acid]	9700
O=C(O)CC(CC(=O)O)C(=O)NCCc1ccc2ccccc2c1 [Example 169, 3-(2-Naphthalen-2-yl-ethylcarbamoyl)-pentanedioic acid]	19000

Now those with a lower IC50, led by results:

IC50 [nM]	SMILES
140	O=C(O)C[C@H](NC(=O)[C@@H](S)Cc1ccccc1)C(=O)NCCc1c[nH]c2ccccc12 [Example 118, N-[2-(1H-indol-3-yl)l-ethyl]-3-(2-mercapto-3-phenyl-propionylamino)-succinamic acid]
190	N#Cc1ccc(-c2ccc(CCNC(=O)C(CC(=O)O)CC(=O)NO)cc2)cc1 (stereo not drawn) [Example 130, 3-[2-(4′-Cyano-biphenyl-4-yl)-ethylcarbamoyl]-4-hydroxycarbamoyl-butyric acid]
240	O=C(O)CC(CC(=O)NO)C(=O)NCCc1ccc(-c2ccccn2)cc1 (stereo not drawn) [Example 132, 4-Hydroxycarbamoyl-3-[2-(4-pyridin-2-yl-phenyl)-ethylcarbamoyl]-butyric acid]
54	O=C(O)CC(CC(=O)NO)C(=O)NCC(c1ccccc1)c1ccccc1 (stereo not drawn) [Example 142, 3-(2,2-Diphenyl-ethylcarbamoyl)-4-hydroxycarbamoyl-butyric acid]
